We go through 28 molecules from ChEMBL document CHEMBL1128098, “Synthesis and serotonin receptor binding properties of 5-substituted 3-(1,2,5,6-tetrahydropyridin-3-yl) indoles” (Bioorg Med Chem Lett, 1995).

In assay [1] the target is Serotonin 2 (5-HT2) receptor (Rattus norvegicus, UniProt P30994+P08909+P14842). As to the kind of experiment: Binding affinity to 5-hydroxytryptamine 2 receptor using [3H]ketanserin radioligand assay. Type of assay: protein assay.
Assay [2] addresses T1, 5-hydroxytryptamine receptor 1A (Rattus norvegicus, UniProt P19327).
T1 sequence (P19327 whole entry): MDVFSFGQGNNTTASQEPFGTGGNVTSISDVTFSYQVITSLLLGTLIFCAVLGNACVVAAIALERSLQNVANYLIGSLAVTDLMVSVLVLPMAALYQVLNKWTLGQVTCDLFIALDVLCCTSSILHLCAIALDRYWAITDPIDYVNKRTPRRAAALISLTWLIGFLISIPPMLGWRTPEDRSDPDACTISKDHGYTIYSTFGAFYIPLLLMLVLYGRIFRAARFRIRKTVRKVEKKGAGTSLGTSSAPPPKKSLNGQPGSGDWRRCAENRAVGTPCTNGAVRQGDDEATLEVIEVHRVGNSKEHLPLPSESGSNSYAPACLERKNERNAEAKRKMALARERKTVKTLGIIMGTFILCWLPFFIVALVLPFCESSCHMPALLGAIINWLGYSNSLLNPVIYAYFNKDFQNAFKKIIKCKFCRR
The experiment in a line: Binding affinity to 5-hydroxytryptamine 1A receptor using [3H]8-OH-DPAT radioligand assay.

A word on the Ki: it is the equilibrium dissociation constant of an inhibitor or competing ligand from its target.

With `CCCN1CCC=C(c2c[nH]c3ccc(C(N)=O)cc23)C1`, the inhibition constant (Ki) in assay [1] was 19152 nM; in assay [2], 4.7 nM.
In the same order, the values of `Cc1ccc2[nH]cc(C3=CCCN(C)C3)c2c1` are 194 nM and 72 nM.
With `CN1CCC=C(c2c[nH]c3ccc(C#N)cc23)C1`, the Ki in assay [1] is 1035 nM; in assay [2], 129 nM.
As for `COC(=O)c1ccc2[nH]cc(C3=CCCN(C)C3)c2c1`, the figures for the Ki in assay [1] and in assay [2] were 5360 nM and 102 nM, respectively.
In the same order, the values of `CCN1CCC=C(c2c[nH]c3ccc(F)cc23)C1` are 67 nM and 142 nM.
Take `CN1CCC=C(c2c[nH]c3ccc(Cl)cc23)C1`: the results for the inhibitory constant (Ki) in assay [1] and in assay [2] were 107 nM and 113 nM, respectively.
Take `CCN1CCC=C(c2c[nH]c3ccc(C#N)cc23)C1`: the inhibition constant (Ki) was 1360 nM in assay [1] and 186 nM in assay [2].
The matching figures for `CN1CCC=C(c2c[nH]c3ccc(F)cc23)C1`: 43 nM and 124 nM.
`CN1CC[C@@H]2CCc3[nH]c4ccccc4c3[C@H]2C1`: the Ki in assay [1] was determined as 325 nM; in assay [2], 2360 nM.
On to `CCN1CCC=C(c2c[nH]c3ccc(Br)cc23)C1`, for which the Ki in assay [1] came out at 125 nM; in assay [2] it was 24 nM.
For the molecule `CCN1CCC=C(c2c[nH]c3ccc(OC)cc23)C1`, the Ki in assay [1] is 1130 nM; in assay [2] it was 71 nM.
The matching figures for `CC(=O)c1ccc2[nH]cc(C3=CCCN(C)C3)c2c1`: 3383 nM and 91 nM.
Turning to `CCCN1CCC=C(c2c[nH]c3ccc(OC)cc23)C1`, the Ki amounted to 1070 nM in assay [1] and 226 nM in assay [2].
Turning to `CCCN1CCC=C(c2c[nH]c3ccccc23)C1`, the results for the Ki in assay [1] and in assay [2] were 146 nM and 556 nM, respectively.
The matching figures for `CCN1CCC=C(c2c[nH]c3ccccc23)C1`: 165 nM and 213 nM.
Take `CCN1CCC=C(c2c[nH]c3ccc(Cl)cc23)C1`: the figures for the Ki in assay [1] and in assay [2] were 150 nM and 47 nM, respectively.
The matching figures for `CCCN1CCC=C(c2c[nH]c3ccc(Br)cc23)C1`: 139 nM and 192 nM.
For the molecule `CCN1CCC=C(c2c[nH]c3ccc(C)cc23)C1`, the figures for the Ki in assay [1] and in assay [2] were 246 nM and 42 nM, respectively.
In the same order, the values of `CC(=O)Nc1ccc2[nH]cc(C3=CCCN(C)C3)c2c1` are 14536 nM and 16 nM.
Turning to `COc1ccc2[nH]cc(C3=CCCN(C)C3)c2c1`, the inhibitory constant (Ki) came to 716 nM in assay [1] and 79 nM in assay [2].
For `CCCN1CCC=C(c2c[nH]c3ccc(NC(C)=O)cc23)C1`, the inhibition constant Ki was greater than 50000 nM in assay [1] and 205 nM in assay [2].
In the same order, the values of `CN1CCC=C(c2c[nH]c3ccc(Br)cc23)C1` are 82 nM and 50 nM.
In the same order, the values of `CCCN1CCC=C(c2c[nH]c3ccc(C#N)cc23)C1` are 958 nM and 303 nM.
In the case of `COc1ccc2[nH]cc(C3=CCCNC3)c2c1`, the figures for the Ki in assay [1] and in assay [2] were 230 nM and 5.7 nM, respectively.
The matching figures for `CN1CCC=C(c2c[nH]c3ccc(O)cc23)C1`: 237 nM and 145 nM.
For `CN1CCC=C(c2c[nH]c3ccccc23)C1`, the Ki was 139 nM in assay [1] and 261 nM in assay [2].
The matching figures for `CCCN1CCC=C(c2c[nH]c3ccc(C(=O)OC)cc23)C1`: greater than 50000 nM and 214 nM.
As to `CN1CCC=C(c2c[nH]c3ccc(C(N)=O)cc23)C1`, the inhibition constant (Ki) is greater than 10000 nM in assay [1] and 3.8 nM in assay [2].
